Patent US20170209445A1, “KINASE INHIBITORS” (Respivert Limited, priority 2014, published 2017)

Tests used:
Lck = target: T1, Lck (Homo sapiens, UniProt P06239); experiment: KINOMEscan dissociation constant, Lck; type: binding
T1 construct: purchased DiscoveRx Corporation (LeadHunter Discover Services, KINOMEscan)
Procedure: (§1) Kinase enzyme binding activities of compounds disclosed herein may be determined using a proprietary assay which measures active site-directed competition binding to an immobilized ligand (Fabian, M. A. et al., Nature Biotechnol., 2005, 23:329-336). These assays may be conducted by DiscoverX (formerly Ambit; San Diego, Calif.). The percentage inhibition produced by incubation with a test compound may be calculated relative to the non-inhibited control.

p38 MAPKα [1] = target: T2, p38 MAPKα (Homo sapiens, UniProt Q16539); experiment: KINOMEscan dissociation constant, p38 MAPKα; type: binding
T2 construct: purchased Invitrogen
Procedure: as §1

Syk [2] = target: T3, Syk (Homo sapiens, UniProt P43405); experiment: KINOMEscan dissociation constant, Syk; type: binding
T3 construct: purchased Invitrogen
Procedure: as §1

p38 MAPKα [3] = target: T2, p38 MAPKα; experiment: p38 MAPKα enzyme inhibition (Method 2), FRET Z-LYTE; type: biochemical
Procedure: (§2) The enzyme inhibitory activities of compounds disclosed herein are determined by FRET using synthetic peptides labelled with both donor and acceptor fluorophores (Z-LYTE, Invitrogen Ltd., Paisley, UK).
The inhibitory activities of test compounds against the p38 MAPKα isoform (MAPK14: Invitrogen), are evaluated indirectly by determining the level of activation/phosphorylation of the down-stream molecule, MAPKAP-K2. The p38 MAPKα protein (80 ng/mL, 2.5 μL) is mixed with the test compound (2.5 μL of either 4 μg/mL, 0.4 μg/mL, 0.04 μg/mL or 0.004 μg/mL) for 2 hr at RT. […] The mixture is incubated for 1 hr at RT. Development reagent (protease, 5 μL) is added for 1 hr prior to detection in a fluorescence microplate reader (Varioskan® Flash, ThermoFisher Scientific).
This method follows the same steps as Method 1 above, but utilises a higher concentration of the p38 MAPKα protein (2.5 μL of 200 ng/mL protein instead of 2.5 μL of 80 ng/mL protein) for mixing with the test compound.
(§3) In all cases, the site-specific protease cleaves non-phosphorylated peptide only and eliminates the FRET signal. Phosphorylation levels of each reaction are calculated using the ratio of coumarin emission (donor) over fluorescein emission (acceptor), for which high ratios indicate high phosphorylation and low ratios indicate low phosphorylation levels.

c-Src = target: T4, c-Src (Homo sapiens, UniProt P12931); experiment: c-Src enzyme inhibition, FRET Z-LYTE; type: biochemical
T4 construct: purchased Invitrogen
Procedure: as §2
(§4) The inhibitory activities of compounds of the invention against c-Src and Syk enzymes (Invitrogen), are evaluated in a similar fashion to that described hereinabove. The relevant enzyme (3000 ng/mL or 2000 ng/mL respectively, 2.5 μL) is incubated with the test compound (either 4 μg/mL, 0.4 μg/mL, 0.04 μg/mL, or 0.004 μg/mL, 2.5 μL each) for 2 hr at RT. The FRET peptides (8 μM, 2.5 μL), and appropriate ATP solutions (2.5 μL, 800 μM for c-Src, and 60 μM ATP for Syk) are then added to the enzymes/compound mixtures and incubated for 1 hr. Development reagent (protease, 5 μL) is added for 1 hr prior to detection in a fluorescence microplate reader (Varioskan® Flash, ThermoFisher Scientific).
as §3

Syk [4] = target: T3, Syk; experiment: Syk enzyme inhibition, FRET Z-LYTE; type: biochemical
Procedure: as §2, §4, §3

GSK3α = target: T5, GSK3α (Homo sapiens, UniProt P49840); experiment: GSK3α enzyme inhibition (Method 2), FRET Z-LYTE; type: biochemical
T5 construct: purchased Invitrogen
Procedure: as §2
The inhibitory activities of compounds of the invention against the GSK 3α enzyme isoform (Invitrogen), are evaluated by determining the level of activation/phosphorylation of the target peptide. The GSK3-α protein (500 ng/mL, 2.5 μL) is mixed with the test compound (2.5 μL at either 4 μg/mL, 0.4 μg/mL, 0.04 μg/mL, or 0.004 μg/mL) for 2 hr at RT. The FRET peptide (8 μM, 2.5 μL), which is a phosphorylation target for GSK3α, and ATP (40 μM, 2.5 μL) are then added to the enzyme/compound mixture and the resulting mixture incubated for 1 hr. Development reagent (protease, 5 μL) is added for 1 hr prior to detection in a fluorescence microplate reader (Varioskan® Flash, ThermoFisher Scientific).
as §3
This method follows the same steps as Method 1 above, but utilises a shorter period of mixing of the test compound (105 minutes instead of 2 hours) with the GSK3-α protein.

PBMCs [5] = experiment: LPS-induced IL-8 release in PBMC cells; type: cell-based; details: Homo sapiens, LPS-stimulated PBMCs, read-out: IC50 Values for Inhibition of Cytokine Release PBMCs IL-8
In short: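 Healthy-donor PBMCs isolated by density gradient were pretreated with compound for 2 h, then stimulated with 1 ng/mL LPS (E. coli 0111:B4) for 24 h at 37° C., 5% CO2. IL-8 and TNFα in supernatants measured by sandwich ELISA.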

PBMCs [6] = experiment: IL-2 release in CD3/CD28 stimulated PBMC cells; type: cell-based; details: Homo sapiens, read-out: IC50 Values for Inhibition of Cytokine Release PBMCs IL-2
Procedure: (§5) PBMCs from healthy subjects are separated from whole blood using a density gradient (Lymphoprep, Axis-Shield Healthcare). Cells are added to a 96 well plate pre-coated with a mixture of CD3/CD28 monoclonal antibodies (0.3 μg/mL eBioscience and 3 μg/mL BD Pharmingen respectively). Compound at the desired concentration is then added to the wells and the plate left for 3 days under normal tissue culture conditions. Supernatants are harvested and IL-2 and IFN gamma release determined by Sandwich ELISA (Duo-set, R&D System). The IC50 is determined from the dose response curve.

PBMCs [7] = experiment: IFN gamma release in CD3/CD28 stimulated PBMC cells; type: cell-based; details: Homo sapiens, read-out: IC50 Values for Inhibition of Cytokine Release PBMCs IFNγ
Procedure: as §5

HT29 cells = experiment: IL-1β-induced IL-8 release in HT29 cells; type: cell-based; details: Homo sapiens, HT-29; IL-1β-stimulated HT29 cells; read-out: IC50 Values for Inhibition of Cytokine Release HT29 cells IL-8
Procedure: HT29 cells, a human colon adenocarcinoma cell line, are plated in a 96 well plate (24 hrs) and pre-treated with compounds at the desired concentration for 2 hours before addition of 5 ng/mL of IL-1β (Abcam) for 24 hours. Supernatants are harvested for IL-8 quantification by Sandwich ELISA (Duo-set, R&D System). The IC50 is determined from the dose response curve.

[8] = Hydrolytic stability study; type: physicochemical; details: DMSO/water (3:1), 1 mg/mL, experiment in which Example 2 was tested
Procedure: Chemical stability of compounds of the invention was assessed in a mixture of DMSO and water (3:1) at a test compound concentration of 1 mg/mL
General HPLC Procedure • Agilent, Waters X-Select C18, 2.5 μm, 4.6×30 mm column, 4 min method, 5-95% • MeCN/water (0.1% formic acid). • Flow rate 2.5 ml/min. • Column Oven Temperature 40° C. • Detection 254 nm.
Sample Preparation • A 1.0 mg sample of test compound was dissolved in 1 mL of DMSO/water (3:1) and the resulting mixture was stirred at rt overnight.
Recording Stability • A 50 μL aliquot of the test solution was removed and analysed in duplicate by 5 μL HPLC injections. The peak area for the test compound (taken to be 100% product, 0% degradation) was recorded following manual integration of the corresponding UV trace. The area retention time was also recorded. • The test solution was heated to 60° C. internal temperature (65° C. block temperature), with stirring, and timing commenced once the target temperature had been reached. After 5 and 24 h, samples were removed and analysed by HPLC (5 μL injections). In all cases, 5 μL injections were used and the samples analysed in duplicate. • The peak areas for the test compounds were recorded at both subsequent timepoints and the % decomposition calculated from the % change in peak area over time.

PBMCs [9] = experiment: Cell mitosis assay in PBMCs; type: cell-based, human
Procedure: Peripheral blood mononucleocytes (PBMCs) from healthy subjects are separated from whole blood (Quintiles, London, UK) using a density gradient (Histopaque®-1077, Sigma-Aldrich, Poole, UK). The PBMCs (3 million cells per sample) are subsequently treated with 2% PHA (phytohaemagglutinin, Sigma-Aldrich, Poole, UK) for 48 hr, followed by a 20 hr exposure to varying concentrations of test compounds. At 2 hr before collection, PBMCs are treated with demecolcine (0.1 μg/mL; Invitrogen, Paisley, UK) to arrest cells in metaphase. To observe mitotic cells, PBMCs are permeabilised and fixed by adding Intraprep (50 μL; Beckman Coulter, France), and stained with anti-phospho-histone 3 (0.26 ng/L; #9701; Cell Signalling, Danvers, Mass.) and propidium iodide (1 mg/mL; Sigma-Aldrich, Poole, UK) as previously described (Muehlbauer P. A. and Schuler M. J., Mutation Research, 2003, 537:117-130). Fluorescence is observed using an ATTUNE flow cytometer (Invitrogen, Paisley, UK), gating for lymphocytes.

Jurkat cells = experiment: Cell cytotoxicity assay (Jurkat cell viability); type: cell-based, human; details: 24 hours
Procedure: 1×10^5 Jurkat cells (immortalised human T lymphocytes) are added to the appropriate number of wells of a 96 well plate in 100 μL of media (RPMI supplemented with 10% foetal bovine serum). 1 μL of DMSO control (final concentration 1.0% v/v) or test compound (final concentration 20, 5 or 1 μg/mL) is added to the wells and incubated at 37° C., 5% CO2. After 24 hours, the plate is centrifuged at 1200 rpm for 3 minutes and the supernatant discarded. Cells are then resuspended in 150 μL (final concentration 7.5 μg/mL) of propidium iodide (PI) in PBS and incubated at 37° C., 5% CO2 for 15 minutes. After 15 minutes, cells are analysed by flow cytometry (BD accuri) using the FL3 window. The % viability is calculated as the % of cells that are PI negative in the test wells normalised to the DMSO control.

T2 sequence (Q16539 whole entry): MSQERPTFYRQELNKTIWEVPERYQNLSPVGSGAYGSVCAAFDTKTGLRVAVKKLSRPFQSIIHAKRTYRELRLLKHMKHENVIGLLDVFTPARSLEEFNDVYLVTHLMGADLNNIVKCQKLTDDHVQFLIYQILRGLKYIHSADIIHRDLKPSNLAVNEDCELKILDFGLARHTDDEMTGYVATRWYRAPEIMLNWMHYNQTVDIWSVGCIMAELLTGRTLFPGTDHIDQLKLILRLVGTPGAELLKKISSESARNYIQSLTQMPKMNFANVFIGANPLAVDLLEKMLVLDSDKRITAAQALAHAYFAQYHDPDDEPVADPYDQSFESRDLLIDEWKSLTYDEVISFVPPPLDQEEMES
T5 sequence (P49840 whole entry): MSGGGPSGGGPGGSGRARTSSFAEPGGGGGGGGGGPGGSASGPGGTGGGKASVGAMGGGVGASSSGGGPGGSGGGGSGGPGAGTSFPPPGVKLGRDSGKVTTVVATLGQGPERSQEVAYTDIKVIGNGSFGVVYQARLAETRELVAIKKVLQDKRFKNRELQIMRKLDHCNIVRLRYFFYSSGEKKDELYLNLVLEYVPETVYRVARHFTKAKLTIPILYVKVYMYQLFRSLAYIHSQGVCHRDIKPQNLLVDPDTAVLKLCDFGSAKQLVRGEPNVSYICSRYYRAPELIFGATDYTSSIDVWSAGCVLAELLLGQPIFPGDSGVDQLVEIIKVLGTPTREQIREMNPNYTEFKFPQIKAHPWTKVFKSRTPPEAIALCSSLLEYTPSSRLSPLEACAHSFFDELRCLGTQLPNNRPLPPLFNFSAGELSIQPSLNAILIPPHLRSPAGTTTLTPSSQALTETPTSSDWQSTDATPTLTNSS
T4 sequence (P12931 whole entry): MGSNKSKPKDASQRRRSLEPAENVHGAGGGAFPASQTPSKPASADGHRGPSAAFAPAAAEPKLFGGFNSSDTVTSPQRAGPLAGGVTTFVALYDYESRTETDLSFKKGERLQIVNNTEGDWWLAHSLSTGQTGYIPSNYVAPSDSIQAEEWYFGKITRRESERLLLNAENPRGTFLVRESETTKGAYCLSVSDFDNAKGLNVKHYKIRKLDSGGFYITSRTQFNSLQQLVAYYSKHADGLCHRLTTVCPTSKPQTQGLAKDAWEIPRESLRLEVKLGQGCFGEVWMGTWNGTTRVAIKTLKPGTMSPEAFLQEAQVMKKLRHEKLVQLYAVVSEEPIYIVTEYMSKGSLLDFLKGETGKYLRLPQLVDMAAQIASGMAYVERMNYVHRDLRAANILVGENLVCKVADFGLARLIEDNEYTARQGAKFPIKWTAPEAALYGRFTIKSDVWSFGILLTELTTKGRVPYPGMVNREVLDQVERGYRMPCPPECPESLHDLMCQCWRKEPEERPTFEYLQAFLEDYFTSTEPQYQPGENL
T1 sequence (P06239 whole entry): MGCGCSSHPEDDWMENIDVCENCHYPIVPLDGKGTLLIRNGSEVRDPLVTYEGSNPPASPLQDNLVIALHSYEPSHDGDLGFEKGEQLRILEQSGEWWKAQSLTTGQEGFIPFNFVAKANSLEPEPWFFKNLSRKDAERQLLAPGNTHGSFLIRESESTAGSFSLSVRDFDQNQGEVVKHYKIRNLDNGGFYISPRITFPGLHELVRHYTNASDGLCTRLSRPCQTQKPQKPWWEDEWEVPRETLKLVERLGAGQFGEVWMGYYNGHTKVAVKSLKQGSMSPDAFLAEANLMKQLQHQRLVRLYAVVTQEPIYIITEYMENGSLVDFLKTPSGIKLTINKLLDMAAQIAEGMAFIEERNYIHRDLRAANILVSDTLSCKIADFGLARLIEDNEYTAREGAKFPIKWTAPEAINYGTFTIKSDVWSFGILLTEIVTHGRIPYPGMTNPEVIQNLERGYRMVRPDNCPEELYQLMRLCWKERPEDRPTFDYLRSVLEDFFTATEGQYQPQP

Kd (Lck) | Kd (p38 MAPKα [1]) | Kd (Syk [2]) | IC50 (p38 MAPKα [3]) | IC50 (c-Src) | IC50 (Syk [4]) | IC50 (GSK3α) | IC50 (HT29 cells) | % Parent Remaining ([8]; 60° C., 300 min) | % Parent Remaining ([8]; 60° C., 1440 min) | % Parent Remaining ([8]; time 0 min) | SMILES | IC50 (PBMCs [5]) | IC50 (PBMCs [6]) | IC50 (PBMCs [7]) | inhibition at 5 µg/mL (PBMCs [9]; Homo sapiens, PBMC, PBMCs, 5 μg/mL) | impact on cell division (mitosis) in PBMCs, in words (PBMCs [9]; assay (g), compared with Reference Compound A) | % Viability at 1 μg/mL (Jurkat cells; 1 μg/mL) | % Viability at 5 μg/mL (Jurkat cells; 5 μg/mL) | % Viability at 20 μg/mL (Jurkat cells; 20 μg/mL)
13 nM | 15 nM | 68 nM | 32 nM | 27 nM | > 1250 nM | > 12500 nM | 78.7 nM | 104.2% | 102.9% | 100% | COCCOCCOCCOc1cc(Nc2ncc3cc(-c4cc(C(=O)Nc5cc(C(C)(C)C)cc(NS(C)(=O)=O)c5OC)ccc4C)ccc3n2)cc(OC)c1 [Example 2, N-(5-(tert-Butyl)-2-methoxy-3-(methylsulfonamido)phenyl)-3-(2-((3-methoxy-5-(2-(2-(2-methoxyethoxy)ethoxy)ethoxy)phenyl)amino)quinazolin-6-yl)-4-methylbenzamide] | 26 nM | 126 nM | 53.3 nM | – | – | – | – | –
6.7 nM | 3.9 nM | 50 nM | 12 nM | 18 nM | 781 nM | > 13100 nM | – | – | – | – | COc1cc(Nc2ncc3cc(-c4cc(C(=O)Nc5cc(C(C)(C)C)cc(C(N)=O)c5OC)ccc4C)ccc3n2)cc(C(=O)NCCN2CCOCC2)c1 [Example 3, N-(5-(tert-Butyl)-3-carbamoyl-2-methoxyphenyl)-3-(2-((3-methoxy-5-((2-morpholinoethyl)-carbamoyl)phenyl)amino)quinazolin-6-yl)-4-methylbenzamide] | 8 nM | 16.5 nM | 18.4 nM | 66.3% | markedly less active than the Reference Compound A | 100.4% | 82.9% | 77.5%
